Results on 15 compounds are retold here after patent publication US10308644B2, “Heterocyclic compounds as immunomodulators” (Incyte Corporation, priority 2016, dated 2019).

A word on the IC50: it is the concentration at which inhibition is half-maximal.

This assay deals with PD-1/PD-L1 (Homo sapiens (Human), UniProt Q9NZQ7). Put plainly: PD-1/PD-L1 Homogeneous Time-Resolved Fluorescence (HTRF) Binding Assay. Conditions: recombinant human PD-1 (3 nM) and PD-L1 (10 nM), 25° C., PBS pH 7.4. In short, it runs like this: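 Fc-tagged human PD-1 (25-167, 3 nM) and His-tagged PD-L1 (19-238, 10 nM) preincubated with inhibitor 40 min in PBS pH 7.4, 0.05% Tween-20, 0.1% BSA, 1% DMSO, 25 °C. Binding detected by HTRF (Eu anti-IgG/APC anti-His, 665/620 nm) after 60 min; IC50 from percent control activity.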
Sequence of PD-1/PD-L1 (Q9NZQ7 19-238): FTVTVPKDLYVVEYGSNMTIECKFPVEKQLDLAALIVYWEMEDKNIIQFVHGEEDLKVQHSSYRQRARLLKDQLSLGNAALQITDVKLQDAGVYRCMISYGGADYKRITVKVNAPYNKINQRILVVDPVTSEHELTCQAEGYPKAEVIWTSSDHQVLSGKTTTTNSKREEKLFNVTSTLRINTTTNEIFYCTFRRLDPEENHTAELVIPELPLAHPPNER

As for `Cc1c(-c2nc3cc(CN4CC[C@H](C(=O)O)C4)cc(Cl)c3o2)cccc1-c1cccc(Nc2nccc3cc(CN4CC[C@@H](O)C4)cnc23)c1Cl` [Example 81, (S)-1-((7-chloro-2-(2′-chloro-3′-(3-(((R)-3-hydroxypyrrolidin-1-yl)methyl)-1,7-naphthyridin-8-ylamino)-2-methylbiphenyl-3-yl)benzo[d]oxazol-5-yl)methyl)pyrrolidine-3-carboxylic acid], the IC50 was ≤ 10 nM. Regarding `Cc1c(-c2nc3cc(CN4CC[C@@H](C(=O)O)C4)cc(Cl)c3o2)cccc1-c1cccc(Nc2nccc3cc(CN4CC[C@@H](O)C4)cnc23)c1Cl` [Example 82, (R)-1-((7-chloro-2-(2′-chloro-3′-(3-(((R)-3-hydroxypyrrolidin-1-yl)methyl)-1,7-naphthyridin-8-ylamino)-2-methylbiphenyl-3-yl)benzo[d]oxazol-5-yl)methyl)pyrrolidine-3-carboxylic acid], the IC50 was ≤ 10 nM. `Cc1c(-c2nc3cc(CN4CC[C@H](C(=O)O)C4)cc(C#N)c3o2)cccc1-c1cccc(Nc2nccc3cc(CN4CC[C@@H](O)C4)cnc23)c1Cl` [Example 83, (S)-1-((2-(2′-chloro-3′-(3-(((R)-3-hydroxypyrrolidin-1-yl)methyl)-1,7-naphthyridin-8-ylamino)-2-methylbiphenyl-3-yl)-7-cyanobenzo[d]oxazol-5-yl)methyl)pyrrolidine-3-carboxylic acid]: the IC50 is ≤ 10 nM. The result for `Cc1c(-c2nc3cc(CN4CC[C@@H](C(=O)O)C4)cc(C#N)c3o2)cccc1-c1cccc(Nc2nccc3cc(CN4CC[C@@H](O)C4)cnc23)c1Cl` [Example 84, (R)-1-((2-(2′-chloro-3′-(3-(((R)-3-hydroxypyrrolidin-1-yl)methyl)-1,7-naphthyridin-8-ylamino)-2-methylbiphenyl-3-yl)-7-cyanobenzo[d]oxazol-5-yl)methyl)pyrrolidine-3-carboxylic acid] reads ≤ 10 nM; that for `Cc1c(Nc2nccc3cc(CN4CC[C@@H](O)C4)cnc23)cccc1-c1cccc(-c2nc3cc(CN4CC(C(=O)O)C4)cc(C#N)c3o2)c1C` [Example 85, (R)-1-((7-cyano-2-(3′-(3-((3-hydroxypyrrolidin-1-yl)methyl)-1,7-naphthyridin-8-ylamino)-2,2′-dimethylbiphenyl-3-yl)benzo[d]oxazol-5-yl)methyl)azetidine-3-carboxylic acid], ≤ 10 nM.

In the case of `Cc1c(Nc2nccc3cc(CN4CC[C@@H](O)C4)cnc23)cccc1-c1cccc(-c2nc3cc(CNCC(C)(C)C(=O)O)cc(C#N)c3o2)c1C` [Example 86, (R)-3-((7-cyano-2-(3′-(3-((3-hydroxypyrrolidin-1-yl)methyl)-1,7-naphthyridin-8-ylamino)-2,2′-dimethylbiphenyl-3-yl)benzo[d]oxazol-5-yl)methylamino)-2,2-dimethylpropanoic acid], the half-inhibitory concentration (IC50) was ≤ 10 nM. The result for `Cc1c(-c2nc3cc(CN4CC[C@@H](C(=O)O)C4)cc(C#N)c3o2)cccc1-c1cccc(-n2cc3c(n2)CN(C(C)C)CC3)c1Cl` [Example 87, (R)-1-((2-(2′-chloro-3′-(6-isopropyl-4,5,6,7-tetrahydro-2H-pyrazolo[3,4-c]pyridin-2-yl)-2-methylbiphenyl-3-yl)-7-cyanobenzo[d]oxazol-5-yl)methyl)pyrrolidine-3-carboxylic acid] reads ≤ 10 nM; that for `Cc1c(-c2nc3cc(CN4CC[C@@](C)(C(=O)O)C4)cc(C#N)c3o2)cccc1-c1cccc(NC(=O)c2nc3c(n2C)CCN(C)C3)c1Cl` [Example 88, (R)-1-((2-(2′-chloro-3′-(1,5-dimethyl-4,5,6,7-tetrahydro-1H-imidazo[4,5-c]pyridine-2-carboxamido)-2-methylbiphenyl-3-yl)-7-cyanobenzo[d]oxazol-5-yl)methyl)-3-methylpyrrolidine-3-carboxylic acid], ≤ 10 nM.

For the compound `Cc1c(-c2nc3cc(CN4CCC(C(=O)O)CC4)cc(C#N)c3o2)cccc1-c1cccc(NC(=O)c2nc3c(n2C)CCN(C)C3)c1Cl` [Example 89, 1-((2-(2′-chloro-3′-(1,5-dimethyl-4,5,6,7-tetrahydro-1H-imidazo[4,5-c]pyridine-2-carboxamido)-2-methylbiphenyl-3-yl)-7-cyanobenzo[d]oxazol-5-yl)methyl)piperidine-4-carboxylic acid], the IC50 was ≤ 10 nM. The result for `Cc1c(-c2nc3cc(CN[C@@H](C)C(=O)O)cc(C#N)c3o2)cccc1-c1cccc(NC(=O)c2nc3c(n2C)CCN(C)C3)c1Cl` [Example 90, (S)-2-((2-(2′-chloro-3′-(1,5-dimethyl-4,5,6,7-tetrahydro-1H-imidazo[4,5-c]pyridine-2-carboxamido)-2-methylbiphenyl-3-yl)-7-cyanobenzo[d]oxazol-5-yl)methylamino)propanoic acid] reads ≤ 10 nM; that for `Cc1c(-c2nc3cc(CN[C@H]4CC[C@H](C(=O)O)CC4)cc(C#N)c3o2)cccc1-c1cccc(NC(=O)c2nc3c(n2C)CCN(C)C3)c1Cl` [Example 91, (1R,4R)-4-((2-(2′-chloro-3′-(1,5-dimethyl-4,5,6,7-tetrahydro-1H-imidazo[4,5-c]pyridine-2-carboxamido)-2-methylbiphenyl-3-yl)-7-cyanobenzo[d]oxazol-5-yl)methylamino)cyclohexanecarboxylic acid], ≤ 10 nM; that for `Cc1c(-c2nc3cc(CN4CC[C@H](C(=O)O)C4)cc(C#N)c3o2)cccc1-c1cccc(NC(=O)c2nc3c(n2C)CCNC3)c1Cl` [Example 92, (S)-1-((2-(2′-chloro-2-methyl-3′-(1-methyl-4,5,6,7-tetrahydro-1H-imidazo[4,5-c]pyridine-2-carboxamido)biphenyl-3-yl)-7-cyanobenzo[d]oxazol-5-yl)methyl)pyrrolidine-3-carboxylic acid], ≤ 10 nM. Regarding `Cc1c(-c2nc3cc(CN4CC[C@H](C(=O)O)C4)cc(C#N)c3o2)cccc1-c1cccc(NC(=O)c2nc3c(n2C)CCN(CCO)C3)c1Cl` [Example 93, (S)-1-((2-(2′-chloro-3′-(5-(2-hydroxyethyl)-1-methyl-4,5,6,7-tetrahydro-1H-imidazo[4,5-c]pyridine-2-carboxamido)-2-methylbiphenyl-3-yl)-7-cyanobenzo[d]oxazol-5-yl)methyl)pyrrolidine-3-carboxylic acid], the IC50 is ≤ 10 nM. Take `Cc1c(-c2nc3cc(CN4CC[C@H](C(=O)O)C4)cc(C#N)c3o2)cccc1-c1cccc(NC(=O)c2nc3c(n2C)CN(C)C3)c1Cl` [Example 94, (S)-1-((2-(2′-chloro-3′-(1,5-dimethyl-1,4,5,6-tetrahydropyrrolo[3,4-d]imidazole-2-carboxamido)-2-methylbiphenyl-3-yl)-7-cyanobenzo[d]oxazol-5-yl)methyl)pyrrolidine-3-carboxylic acid]: the IC50 was ≤ 10 nM. In the case of `CCN1CCc2c(nc(C(=O)Nc3cccc(-c4cccc(-c5nc6cc(CN7CC[C@@](C)(C(=O)O)C7)cc(C#N)c6o5)c4C)c3Cl)n2C)C1` [Example 95, (R)-1-((2-(2′-chloro-3′-(5-ethyl-1-methyl-4,5,6,7-tetrahydro-1H-imidazo[4,5-c]pyridine-2-carboxamido)-2-methylbiphenyl-3-yl)-7-cyanobenzo[d]oxazol-5-yl)methyl)-3-methylpyrrolidine-3-carboxylic acid], the IC50 is ≤ 10 nM.
